Data taken from the supplement of paper PMC10307832.

Tests used:
Assay in all cases: relative viability (nuclei count vs DMSO), 5 days (fraction); higher = more cells survive
[1] = test system: NCI-H647
Summary of the method: (§1)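 Relative viability was taken as the ratio of nuclei in treated wells to nuclei in vehicle wells. Lung cancer cell lines in 1536-well plates received compounds by pin tool one day after seeding, either one drug alone or a fixed anchor-drug dose plus five library-drug doses (not always all listed) in √10 steps. Nuclei were counted on 4× images after 5 days of treatment, and values are medians of duplicate plates.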

[2] = test system: BEN
Summary of the method: as §1

[3] = test system: NCI-H1792
Summary of the method: as §1

[4] = test system: NCI-H1395
Summary of the method: as §1

[5] = test system: NCI-H522
Summary of the method: as §1

[6] = test system: NCI-H2009
Summary of the method: as §1

[7] = test system: SK-LU-1
Summary of the method: as §1

[8] = test system: NCI-H1355
Summary of the method: as §1

[9] = test system: NCI-H1993
Summary of the method: as §1

[10] = test system: HARA
Summary of the method: as §1

[11] = test system: SK-MES-1
Summary of the method: as §1

[12] = test system: NCI-H1734
Summary of the method: as §1

[13] = test system: NCI-H2170
Summary of the method: as §1

[14] = test system: NCI-H2342
Summary of the method: as §1

[15] = test system: LOU-NH91
Summary of the method: as §1

[16] = test system: NCI-H1437
Summary of the method: as §1

[17] = test system: NCI-H2405
Summary of the method: as §1

[18] = test system: NCI-H2087
Summary of the method: as §1

[19] = test system: NCI-H661
Summary of the method: as §1

[20] = test system: EKVX
Summary of the method: as §1

[21] = test system: HCC-827
Summary of the method: as §1

Work on O=c1cc(-c2cccc3c2Sc2ccccc2S3)oc(N2CCOCC2)c1 + CCNC(=O)c1noc(-c2cc(C(C)C)c(O)cc2O)c1-c1ccc(CN2CCOCC2)cc1 [Luminespib] (partner 0.01 µM) yielded a relative viability ([1]; first compound 0.08 µM) of 0.123, a relative viability ([1]; first compound 0.253 µM) of 0.138 and a relative viability ([1]; first compound 0.8 µM) of 0.259. For the same compound, the relative viability ([1]; first compound 2.53 µM) was 0.183, the relative viability ([1]; first compound 8 µM) was 0.161 and the relative viability ([2]; first compound 0.08 µM) was 0.223. The relative viability ([2]; first compound 0.253 µM) was 0.435, the relative viability ([2]; first compound 0.8 µM) was 0.294 and the relative viability ([2]; first compound 2.53 µM) was 0.271. The relative viability ([2]; first compound 8 µM) was 0.387, the relative viability ([3]; first compound 0.08 µM) was 0.362 and the relative viability ([3]; first compound 0.253 µM) was 0.686. It also gave a relative viability ([3]; first compound 0.8 µM) of 0.329, a relative viability ([3]; first compound 2.53 µM) of 0.424 and a relative viability ([3]; first compound 8 µM) of 0.328. The relative viability ([4]; first compound 0.08 µM) was 0.632, the relative viability ([4]; first compound 0.253 µM) was 0.712 and the relative viability ([4]; first compound 0.8 µM) was 0.658. For the same compound, the relative viability ([4]; first compound 2.53 µM) was 0.63, the relative viability ([4]; first compound 8 µM) was 0.661 and the relative viability ([5]; first compound 0.08 µM) was 0.999. The relative viability ([5]; first compound 0.253 µM) was 1.03, the relative viability ([5]; first compound 0.8 µM) was 1.21 and the relative viability ([5]; first compound 2.53 µM) was 1.13. The relative viability ([5]; first compound 8 µM) was 1.08, the relative viability ([6]; first compound 0.08 µM) was 1.07 and the relative viability ([6]; first compound 0.253 µM) was 1.1. For the same compound, the relative viability ([6]; first compound 0.8 µM) was 1.01, the relative viability ([6]; first compound 2.53 µM) was 0.939 and the relative viability ([6]; first compound 8 µM) was 1. It also gave a relative viability ([7]; first compound 0.08 µM) of 0.192, a relative viability ([7]; first compound 0.253 µM) of 0.186 and a relative viability ([7]; first compound 0.8 µM) of 0.209. The relative viability ([7]; first compound 2.53 µM) was 0.178, the relative viability ([7]; first compound 8 µM) was 0.183 and the relative viability ([8]; first compound 0.08 µM) was 0.847. The relative viability ([8]; first compound 0.253 µM) was 0.641, the relative viability ([8]; first compound 0.8 µM) was 0.722 and the relative viability ([8]; first compound 2.53 µM) was 0.73. It also gave a relative viability ([8]; first compound 8 µM) of 0.605, a relative viability ([9]; first compound 0.08 µM) of 0.628 and a relative viability ([9]; first compound 0.253 µM) of 0.934. The relative viability ([9]; first compound 0.8 µM) was 0.778, the relative viability ([9]; first compound 2.53 µM) was 0.724 and the relative viability ([9]; first compound 8 µM) was 0.9. The relative viability ([10]; first compound 0.08 µM) was 0.708, the relative viability ([10]; first compound 0.253 µM) was 0.808 and the relative viability ([10]; first compound 0.8 µM) was 0.822. For the same compound, the relative viability ([10]; first compound 2.53 µM) was 0.576, the relative viability ([10]; first compound 8 µM) was 0.834 and the relative viability ([11]; first compound 0.08 µM) was 0.775. It also gave a relative viability ([11]; first compound 0.253 µM) of 0.748, a relative viability ([11]; first compound 0.8 µM) of 0.734 and a relative viability ([11]; first compound 2.53 µM) of 0.522. It also gave a relative viability ([11]; first compound 8 µM) of 0.505, a relative viability ([12]; first compound 0.08 µM) of 0.195 and a relative viability ([12]; first compound 0.253 µM) of 0.175. The relative viability ([12]; first compound 0.8 µM) was 0.228, the relative viability ([12]; first compound 8 µM) was 0.2 and the relative viability ([13]; first compound 0.08 µM) was 0.839. The relative viability ([13]; first compound 0.253 µM) was 0.931, the relative viability ([13]; first compound 0.8 µM) was 0.903 and the relative viability ([13]; first compound 2.53 µM) was 0.63. It also gave a relative viability ([13]; first compound 8 µM) of 0.533, a relative viability ([14]; first compound 0.08 µM) of 0.676 and a relative viability ([14]; first compound 0.253 µM) of 0.68. The relative viability ([14]; first compound 0.8 µM) was 0.715, the relative viability ([14]; first compound 2.53 µM) was 0.663 and the relative viability ([14]; first compound 8 µM) was 0.731. For the same compound, the relative viability ([15]; first compound 0.08 µM) was 0.327, the relative viability ([15]; first compound 0.253 µM) was 0.43 and the relative viability ([15]; first compound 0.8 µM) was 0.339. For the same compound, the relative viability ([15]; first compound 2.53 µM) was 0.354, the relative viability ([15]; first compound 8 µM) was 0.357 and the relative viability ([16]; first compound 0.08 µM) was 1.08. For the same compound, the relative viability ([16]; first compound 0.253 µM) was 1.29, the relative viability ([16]; first compound 0.8 µM) was 1.28 and the relative viability ([16]; first compound 2.53 µM) was 1.15. The relative viability ([16]; first compound 8 µM) was 1.21, the relative viability ([17]; first compound 0.08 µM) was 0.522 and the relative viability ([17]; first compound 0.253 µM) was 0.565. For the same compound, the relative viability ([17]; first compound 0.8 µM) was 0.464, the relative viability ([17]; first compound 2.53 µM) was 0.568 and the relative viability ([17]; first compound 8 µM) was 0.465. It also gave a relative viability ([18]; first compound 0.08 µM) of 0.2, a relative viability ([18]; first compound 0.253 µM) of 0.163 and a relative viability ([18]; first compound 0.8 µM) of 0.155. For the same compound, the relative viability ([18]; first compound 2.53 µM) was 0.163, the relative viability ([18]; first compound 8 µM) was 0.2 and the relative viability ([19]; first compound 0.08 µM) was 0.914. For the same compound, the relative viability ([19]; first compound 0.253 µM) was 0.939, the relative viability ([19]; first compound 0.8 µM) was 0.893 and the relative viability ([19]; first compound 2.53 µM) was 0.897. For the same compound, the relative viability ([19]; first compound 8 µM) was 0.891, the relative viability ([20]; first compound 0.08 µM) was 0.829 and the relative viability ([20]; first compound 0.253 µM) was 0.924. For the same compound, the relative viability ([20]; first compound 0.8 µM) was 0.846, the relative viability ([20]; first compound 2.53 µM) was 0.883 and the relative viability ([20]; first compound 8 µM) was 0.853. The relative viability ([21]; first compound 0.08 µM) was 0.582, the relative viability ([21]; first compound 0.253 µM) was 0.588 and the relative viability ([21]; first compound 0.8 µM) was 0.656. For the same compound, the relative viability ([21]; first compound 2.53 µM) was 0.588 and the relative viability ([21]; first compound 8 µM) was 0.639.
